Test results from ChEMBL document CHEMBL1201862, “PubChem BioAssay data set” (2004).
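1) Cells in 96-well plates. 2) Compound, 48 h, 5 concentrations. 3) Linear interpolation between surrounding doses. 4) Unreached endpoint = highest concentration. The concentration for 50% growth inhibition is given as GI50.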 The source made the active and inactive calls. Rule as the data show it: active = GI50 up to about 1.1 µM and inactive = higher.

Assays:
Test in all cases: inhibition of tumour cell growth, NCI panel, 48 h
[1] = system: U-251
[2] = system: A549
[3] = system: DMS-114
[4] = system: MOLT-4
[5] = system: M14
[6] = system: SK-MEL-5
[7] = system: IGROV-1
[8] = system: SF-268
[9] = system: LOX IMVI
[10] = system: NCI-H23
[11] = system: RPMI-8226
[12] = system: DLD-1
[13] = system: UO-31
[14] = system: ACHN
[15] = system: KM12
[16] = system: LXFL 529
[17] = system: SNB-78
[18] = system: KM-20L2
[19] = system: K562
[20] = system: SK-MEL-2
[21] = system: Malme-3M
[22] = system: SK-MEL-28
[23] = system: M19-MEL
[24] = system: SNB-75
[25] = system: UACC-257
[26] = system: 786-0
[27] = system: SN12C
[28] = system: HOP-92
[29] = system: HCC 2998
[30] = system: SW-620
[31] = system: CAKI-1
[32] = system: NCI-H460
[33] = system: HT-29
[34] = system: DMS-273
[35] = system: A498
[36] = system: RXF 393
[37] = system: NCI-H522
[38] = system: EKVX
[39] = system: OVCAR-3
[40] = system: OVCAR-5
[41] = system: HOP-62
[42] = system: UACC-62
[43] = system: COLO 205
[44] = system: TK-10
[45] = system: HCT-116
[46] = system: SK-OV-3
[47] = system: SNB-19
[48] = system: SF-539
[49] = system: SR
[50] = system: NCI-H226
[51] = system: CCRF-CEM
[52] = system: SF-295
[53] = system: HL-60
[54] = system: OVCAR-8
[55] = system: OVCAR-4
[56] = system: T47D
[57] = system: MDA-MB-231
[58] = system: NCI/ADR-RES
[59] = system: MDA-MB-435
[60] = system: MCF7
[61] = system: HCT-15
[62] = system: HOP-18
[63] = system: Hs-578T
[64] = system: DU-145
[65] = system: MDA-N
[66] = system: PC-3

Measured: GI50

O=S1(=O)c2ccccc2N(O)C2=NCCN21
inactive: [1] > 100 µM | [2] > 100 µM | [3] > 100 µM | [4] > 100 µM | [5] > 100 µM | [6] > 100 µM | [7] > 100 µM | [8] > 100 µM | [9] > 100 µM | [10] > 100 µM | [11] > 100 µM | [12] > 100 µM | [13] > 100 µM | [14] > 100 µM | [15] > 100 µM | [16] > 100 µM | [17] > 100 µM | [18] > 100 µM | [19] > 100 µM | [20] > 100 µM | [21] > 100 µM | [22] > 100 µM | [23] > 100 µM | [24] > 100 µM | [25] > 100 µM | [26] > 100 µM | [27] > 100 µM | [28] > 100 µM | [29] > 100 µM | [30] > 100 µM | [31] > 100 µM | [32] > 100 µM | [33] > 100 µM | [34] > 100 µM | [35] 28.6 µM | [36] > 100 µM | [37] > 100 µM | [38] > 100 µM | [39] > 100 µM | [40] > 100 µM | [41] > 100 µM | [42] > 100 µM | [43] > 100 µM | [44] > 100 µM | [45] > 100 µM | [46] > 100 µM | [47] > 100 µM | [48] > 100 µM | [49] > 100 µM | [50] 25.9 µM | [51] > 100 µM | [52] > 100 µM | [53] > 100 µM | [54] > 100 µM

COc1ccc(Nc2nnc(-c3nsc4ccccc34)s2)cc1
active: [62] 0.0149 µM
62.8 µM: [61]
inactive: [55] 2.47 µM | [1] > 47.1 µM | [2] 27.4 µM | [3] 59.4 µM | [4] 46.5 µM | [56] 20.1 µM | [5] > 100 µM | [6] > 84.3 µM | [7] > 100 µM | [8] 33.5 µM | [9] 41.1 µM | [57] 6.5 µM | [10] > 100 µM | [11] 22.9 µM | [13] 10.2 µM | [14] 11.1 µM | [15] > 100 µM | [16] > 100 µM | [17] > 100 µM | [18] > 100 µM | [19] 47.2 µM | [20] 78.7 µM | [58] 9.71 µM | [22] > 100 µM | [59] > 100 µM | [23] > 100 µM | [24] 2.6 µM | [60] 81.3 µM | [25] > 100 µM | [26] 3.41 µM | [27] > 61.4 µM | [28] 9.73 µM | [29] > 56.4 µM | [30] > 72.9 µM | [31] 54.5 µM | [32] 15 µM | [33] 39 µM | [63] 21.9 µM | [34] 47.1 µM | [35] 3.78 µM | [36] 26.2 µM | [38] 58.6 µM | [39] 63 µM | [40] > 100 µM | [41] 8.26 µM | [64] > 100 µM | [42] > 100 µM | [43] 63.7 µM | [65] 76 µM | [44] > 49.3 µM | [45] 8.55 µM | [46] 2.52 µM | [47] > 53.1 µM | [48] 31.8 µM | [49] 39.9 µM | [50] 9.46 µM | [66] > 100 µM | [51] 34.7 µM | [52] 10.8 µM | [53] > 70.1 µM | [54] 49.8 µM

CN1C(=O)CSC1=S [3-METHYL-RHODANINE]
> 100 µM: [61]
inactive: [55] > 100 µM | [1] > 100 µM | [2] > 100 µM | [3] > 100 µM | [4] > 100 µM | [5] > 100 µM | [6] > 100 µM | [7] > 100 µM | [8] > 100 µM | [9] > 100 µM | [10] > 100 µM | [11] > 100 µM | [12] > 100 µM | [13] > 100 µM | [14] > 100 µM | [15] > 100 µM | [16] > 100 µM | [17] > 100 µM | [18] > 100 µM | [19] > 100 µM | [20] > 100 µM | [21] > 100 µM | [22] > 100 µM | [23] > 100 µM | [24] > 100 µM | [25] > 100 µM | [26] > 100 µM | [27] > 100 µM | [62] > 100 µM | [28] > 100 µM | [30] > 100 µM | [31] > 100 µM | [32] > 100 µM | [33] > 100 µM | [34] > 100 µM | [35] > 100 µM | [36] > 100 µM | [37] > 100 µM | [39] > 100 µM | [40] > 100 µM | [41] > 100 µM | [42] > 100 µM | [43] > 100 µM | [44] > 100 µM | [45] > 100 µM | [46] > 100 µM | [48] > 100 µM | [49] > 100 µM | [50] > 100 µM | [51] > 100 µM | [52] > 100 µM | [53] > 100 µM | [54] > 100 µM

CC1=N/C(=C\c2cccc([N+](=O)[O-])c2)C(=O)O1
inactive: [1] > 100 µM | [2] > 100 µM | [3] > 100 µM | [4] > 100 µM | [5] > 100 µM | [6] > 100 µM | [7] > 100 µM | [8] > 100 µM | [10] > 100 µM | [11] > 100 µM | [12] > 100 µM | [13] > 100 µM | [14] > 100 µM | [15] > 100 µM | [16] > 100 µM | [17] 86.1 µM | [18] > 100 µM | [19] > 100 µM | [20] > 100 µM | [21] > 100 µM | [22] > 100 µM | [23] > 100 µM | [24] 15.1 µM | [25] > 100 µM | [26] > 100 µM | [27] > 100 µM | [62] > 100 µM | [28] > 100 µM | [29] > 100 µM | [30] > 100 µM | [32] > 100 µM | [33] > 100 µM | [35] > 100 µM | [36] > 100 µM | [37] > 100 µM | [38] > 100 µM | [40] > 100 µM | [41] > 100 µM | [42] > 100 µM | [43] > 100 µM | [44] > 100 µM | [45] > 100 µM | [47] > 100 µM | [48] > 100 µM | [51] > 100 µM | [52] > 100 µM | [53] > 100 µM | [54] > 100 µM
> 100 µM: [61]
